Source: patent US20260265189A1, “NOVEL COMPOUND, AND PHARMACEUTICAL COMPOSITION COMPRISING SAME AS ACTIVE INGREDIENT” (SAPIENSBIO INC., priority 2022, published 2026)

System: α-SMA expression in MRC5 cells
Assay: inhibition of α-SMA expression in MRC5 cells, image screening method
Format: cell-based
Details: Homo sapiens; MRC5, compound 10 μM, TGF-β1 5 ng/mL, 72 hours, relative to TGF-β1 alone; read-out: Inhibitory activity (α-SMA expression inhibition)
Method: The ability of the compounds according to the present invention to inhibit the expression of α-SMA, which is a biomarker for pulmonary fibrosis, was evaluated by an image screening method. MRC5 cells were treated with the compound (10 μM) or DMSO under the condition of TGF-31 (5 ng/mL). 72 hours later, the cells were fixed with a 4% formaldehyde solution, treated with a 0.1% Triton-x100 solution, and treated with a 1% BSA solution to mask non-specific binding caused by antibodies. Anti-α-SMA-FITC (Sigma Aldrich) and anti-GAPDH (Cell Signaling Technology) were used as primary antibodies, and anti-mouse-TRITC was used as a secondary antibody. Imaging and analysis of the results were performed using Cytation5_Gen5_Version 3.12.08 (Bio Tek). Relative to the α-SMA expression level when TGF-31 was treated alone, the α-SMA expression level when both the compound and TGF-31 were treated was calculated as the ability of α-SMA expression inhibition of the corresponding compound.

First: CN1CCN(C(=O)N2CCN(c3ccccc3Cl)c3ccccc32)CC1 [Compound 68, (4-(2-chlorophenyl)-3,4-dihydroquinoxalin-1(2H)-yl)(4-methylpiperazin-1-yl)methanone]
Second: CN1CCN(C(=O)N2CCN(C3CCCCC3)c3ccccc32)CC1 [Compound 107, (4-cyclohexyl-3,4-dihydroquinoxalin-1(2H)-yl)(4-methylpiperazin-1-yl)methanone]
The inhibition at 10 µM of the first is higher: 30 to 50% for the first, 10 to 30% for the second.

`CC(C)N1CC[C@H](NC(=O)N2CCN(c3ccccn3)c3ccccc32)C1` [Compound 69, (S)-N-(1-isopropylpyrrolidin-3-yl)-4-(pyridin-2-yl)-3,4-dihydroquinoxaline-1(2H)-carboxamide] and `CC(C)N1CC[C@H](NC(=O)N2CCN(c3cnccn3)c3ccccc32)C1` [Compound 81, (S)-N-(1-isopropylpyrrolidin-3-yl)-4-(pyrazin-2-yl)-3,4-dihydroquinoxaline-1(2H)-carboxamide] fall in the same range of inhibition at 10 µM: 10 to 30% for the first, 10 to 30% for the second.

Compared with `CC(=O)N1CC[C@@H](NC(=O)N2CCN(c3ccccn3)c3ccccc32)C1` [Compound 70, (R)-N-(1-acetylpyrrolidin-3-yl)-4-(pyridin-2-yl)-3,4-dihydroquinoxaline-1(2H)-carboxamide], `O=C(NC[C@H]1CCNC1)N1CCN(c2ccccn2)c2ccccc21` [Compound 71, (S)-4-(pyridin-2-yl)-N-(pyrrolidin-3-ylmethyl)-3,4-dihydroquinoxaline-1(2H)-carboxamide] is higher in inhibition at 10 µM: 10 to 30% for the first, 30 to 50% for the second.

`O=C(NC[C@H]1CCCN1)N1CCN(c2ccccn2)c2ccccc21` [Compound 72, (R)-4-(pyridin-2-yl)-N-(pyrrolidin-2-ylmethyl)-3,4-dihydroquinoxaline-1(2H)-carboxamide] and `O=C(NCC1CC1)N1CCN(Cc2ccccn2)c2ccccc21` [Compound 102, N-(cyclopropylmethyl)-4-(pyridin-2-ylmethyl)-3,4-dihydroquinoxaline-1(2H)-carboxamide] fall in the same range of inhibition at 10 µM: 30 to 50% for the first, 30 to 50% for the second.

`O=C(N[C@@H]1CCOC1)N1CCN(c2cccnc2)c2ccccc21` [Compound 73, (R)-4-(pyridin-3-yl)-N-(tetrahydrofuran-3-yl)-3,4-dihydroquinoxaline-1(2H)-carboxamide] and `O=C(N[C@@H]1CCOC1)N1CCN(Cc2ccccn2)c2ccccc21` [Compound 98, (R)-4-(pyridin-2-ylmethyl)-N-(tetrahydrofuran-3-yl)-3,4-dihydroquinoxaline-1(2H)-carboxamide] fall in the same range of inhibition at 10 µM: 30 to 50% for the first, 30 to 50% for the second.

First: O=C(NCC1CC1)N1CCN(c2ccncc2)c2ccccc21 [Compound 74, N-(cyclopropylmethyl)-4-(pyridin-4-yl)-3,4-dihydroquinoxaline-1(2H)-carboxamide]
Second: N#Cc1ccc(N2CCN(C(=O)NC[C@H]3CCNC3)c3ccccc32)cc1 [Compound 79, (S)-4-(4-cyanophenyl)-N-(pyrrolidin-3-ylmethyl)-3,4-dihydroquinoxaline-1(2H)-carboxamide]
The inhibition at 10 µM of the first is higher: 30 to 50% for the first, 10 to 30% for the second.

`O=C(N[C@H]1CCNC1)N1CCN(c2cnccn2)c2ccccc21` [Compound 80, (S)-4-(pyrazin-2-yl)-N-(pyrrolidin-3-yl)-3,4-dihydroquinoxaline-1(2H)-carboxamide] and `CC(C)N1CCC(NC(=O)N2CCN(c3cnccn3)c3ccccc32)CC1` [Compound 83, N-(1-isopropylpiperidin-4-yl)-4-(pyrazin-2-yl)-3,4-dihydroquinoxaline-1(2H)-carboxamide] fall in the same range of inhibition at 10 µM: 10 to 30% for the first, 10 to 30% for the second.

First: CC(C)CN1CCC(NC(=O)N2CCN(c3cnccn3)c3ccccc32)CC1 [Compound 82, N-(1-isobutylpiperidin-4-yl)-4-(pyrazin-2-yl)-3,4-dihydroquinoxaline-1(2H)-carboxamide]
Second: CC(C)CN1CC[C@@H](NC(=O)N2CCN(C3CCCCC3)c3ccccc32)C1 [Compound 106, (R)-4-cyclohexyl-N-(1-isobutylpyrrolidin-3-yl)-3,4-dihydroquinoxaline-1(2H)-carboxamide]
The inhibition at 10 µM of the first is lower: 10 to 30% for the first, 30 to 50% for the second.

First: O=C(N[C@@H]1CCNC1)N1CCN(Cc2ccccc2)c2ccccc21 [Compound 84, (R)-4-benzyl-N-(pyrrolidin-3-yl)-3,4-dihydroquinoxaline-1(2H)-carboxamide]
Second: O=C(N[C@@H]1CCNC1)N1CCN(Cc2ccc(F)cc2)c2ccccc21 [Compound 91, (R)-4-(4-fluorobenzyl)-N-(pyrrolidin-3-yl)-3,4-dihydroquinoxaline-1(2H)-carboxamide]
The inhibition at 10 µM of the first is lower: 30 to 50% for the first, 50 to 70% for the second.

First: N[C@H]1CCN(C(=O)N2CCN(Cc3ccccc3)c3ccccc32)C1 [Compound 85, (S)-(3-aminopyrrolidin-1-yl)(4-benzyl-3,4-dihydroquinoxalin-1(2H)-yl)methanone]
Second: CN[C@H]1CCN(C(=O)N2CCN(Cc3ccccc3)c3ccccc32)C1 [Compound 86, (S)-(4-benzyl-3,4-dihydroquinoxalin-1(2H)-yl)(3-(methylamino)pyrrolidin-1-yl)methanone]
The inhibition at 10 µM of the first is higher: 30 to 50% for the first, 10 to 30% for the second.

`CN1CC[C@@H](NC(=O)N2CCN(Cc3ccccc3F)c3ccccc32)C1` [Compound 87, (R)-4-(2-fluorobenzyl)-N-(1-methylpyrrolidin-3-yl)-3,4-dihydroquinoxaline-1(2H)-carboxamide] and `CN1CCC(NC(=O)N2CCN(Cc3ccccc3F)c3ccccc32)CC1` [Compound 88, 4-(2-fluorobenzyl)-N-(1-methylpiperidin-4-yl)-3,4-dihydroquinoxaline-1(2H)-carboxamide] fall in the same range of inhibition at 10 µM: 50 to 70% for the first, 50 to 70% for the second.

Compared with `CN1CCC(CNC(=O)N2CCN(Cc3ccccc3F)c3ccccc32)CC1` [Compound 89, 4-(2-fluorobenzyl)-N-((1-methylpiperidin-4-yl)methyl)-3,4-dihydroquinoxaline-1(2H)-carboxamide], `CN1CC[C@H](CNC(=O)N2CCN(Cc3ccccc3F)c3ccccc32)C1` [Compound 90, (R)-4-(2-fluorobenzyl)-N-((1-methylpyrrolidin-3-yl)methyl)-3,4-dihydroquinoxaline-1(2H)-carboxamide] is lower in inhibition at 10 µM: 50 to 70% for the first, 30 to 50% for the second.

`O=C(NC1CCNCC1)N1CCN(Cc2ccc(F)cc2)c2ccccc21` [Compound 93, 4-(4-fluorobenzyl)-N-(piperidin-4-yl)-3,4-dihydroquinoxaline-1(2H)-carboxamide] and `O=C(N[C@@H]1CCNC1)N1CCN(Cc2ccc(Cl)cc2)c2ccccc21` [Compound 95, (R)-4-(4-chlorobenzyl)-N-(pyrrolidin-3-yl)-3,4-dihydroquinoxaline-1(2H)-carboxamide] cannot be ordered by inhibition at 10 µM: 50 to 70% for the first, at least 70% for the second.

Compared with `CC(C)CN[C@H]1CCN(C(=O)N2CCN(Cc3ccccn3)c3ccccc32)C1` [Compound 96, (S)-(3-(isobutylamino)pyrrolidin-1-yl)(4-(pyridin-2-ylmethyl)-3,4-dihydroquinoxalin-1(2H)-yl)methanone], `CN(C)[C@H]1CCN(C(=O)N2CCN(Cc3ccccn3)c3ccccc32)C1` [Compound 97, (S)-(3-(dimethylamino)pyrrolidin-1-yl)(4-(pyridin-2-ylmethyl)-3,4-dihydroquinoxalin-1(2H)-yl)methanone] is lower in inhibition at 10 µM: 30 to 50% for the first, 10 to 30% for the second.

`O=C(NC1COC1)N1CCN(Cc2ccccn2)c2ccccc21` [Compound 99, N-(oxetan-3-yl)-4-(pyridin-2-ylmethyl)-3,4-dihydroquinoxaline-1(2H)-carboxamide] and `O=C(NCC1CCOC1)N1CCN(Cc2ccccn2)c2ccccc21` (centres unmarked) [Compound 100, 4-(pyridin-2-ylmethyl)-N-((tetrahydrofuran-3-yl)methyl)-3,4-dihydroquinoxaline-1(2H)-carboxamide] fall in the same range of inhibition at 10 µM: 30 to 50% for the first, 30 to 50% for the second.

First: O=C(NCC1CCOCC1)N1CCN(Cc2ccccn2)c2ccccc21 [Compound 101, 4-(pyridin-2-ylmethyl)-N-((tetrahydro-2H-pyran-4-yl)methyl)-3,4-dihydroquinoxaline-1(2H)-carboxamide]
Second: O=C(NCC1CCNCC1)N1CCN(C(=O)c2ccccc2)c2ccccc21 [Compound 114, 4-benzoyl-N-(piperidin-4-ylmethyl)-3,4-dihydroquinoxaline-1(2H)-carboxamide]
The inhibition at 10 µM of the first is higher: 30 to 50% for the first, 10 to 30% for the second.

Compared with `O=C(N[C@@H]1CCNC1)N1CCN(C2CCCCC2)c2ccccc21` [Compound 104, (R)-4-cyclohexyl-N-(pyrrolidin-3-yl)-3,4-dihydroquinoxaline-1(2H)-carboxamide], `O=C(N1CCCC1)N1CCN(C2CCCCC2)c2ccccc21` [Compound 108, (4-cyclohexyl-3,4-dihydroquinoxalin-1(2H)-yl)(pyrrolidin-1-yl)methanone] is higher in inhibition at 10 µM: 10 to 30% for the first, 30 to 50% for the second.

First: O=C(N1CCCCC1)N1CCN(C2CCCCC2)c2ccccc21 [Compound 109, (4-cyclohexyl-3,4-dihydroquinoxalin-1(2H)-yl)(piperidin-1-yl)methanone]
Second: CC(C)CC(=O)N1CCN(C(=O)NCC2CCNCC2)c2ccccc21 [Compound 125, 4-(3-methylbutanoyl)-N-(piperidin-4-ylmethyl)-3,4-dihydroquinoxaline-1(2H)-carboxamide]
The inhibition at 10 µM of the first is higher: 30 to 50% for the first, 10 to 30% for the second.

`CC(C)(C)CC(=O)N1CCN(C(=O)NC[C@@H]2CCNC2)c2ccccc21` [Compound 129, (R)-4-(3,3-dimethylbutanoyl)-N-(pyrrolidin-3-ylmethyl)-3,4-dihydroquinoxaline-1(2H)-carboxamide] and `CC(C)(C)CC(=O)N1CCN(C(=O)NCC2CCNCC2)c2ccccc21` [Compound 130, 4-(3,3-dimethylbutanoyl)-N-(piperidin-4-ylmethyl)-3,4-dihydroquinoxaline-1(2H)-carboxamide] fall in the same range of inhibition at 10 µM: 10 to 30% for the first, 10 to 30% for the second.
